Experimental data: patent US10745382B2 (BRISTOL-MYERS SQUIBB COMPANY, priority 2015, dated 2020)

biological target: T1, PD-1/PD-L1 (Homo sapiens, UniProt Q9NZQ7); assay: PD-1/PD-L1 Homogenous Time-Resolved Fluorescence (HTRF) binding assay; conditions: PD-L1-His 10 nM, PD-1-Ig 20 nM; numeric IC50; read-out: Range or IC50
T1 construct: made in house; host or cells: HEK293T
Summary of the method: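 Detection by europium cryptate anti-Ig plus APC anti-His (1 nM and 20 nM final) with HTRF signal. Buffer was dPBS, 0.1% BSA, 0.05% Tween-20.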

T1 sequence (Q9NZQ7 with tags, fused parts or gaps): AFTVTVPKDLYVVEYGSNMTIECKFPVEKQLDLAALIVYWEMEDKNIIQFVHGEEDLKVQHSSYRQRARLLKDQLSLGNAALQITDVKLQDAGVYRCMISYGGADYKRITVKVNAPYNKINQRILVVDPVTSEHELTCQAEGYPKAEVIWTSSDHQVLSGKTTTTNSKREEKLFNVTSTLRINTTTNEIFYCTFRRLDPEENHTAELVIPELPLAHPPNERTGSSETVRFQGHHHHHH

| Structure (SMILES) | IC50 [nM] |
| --- | --- |
| Cc1c(COc2cc(OCc3cncc(C#N)c3)c(CN3CCCC[C@H]3C(=O)O)cc2Cl)cccc1-c1cccc(CN(C)CCN2CCS(=O)(=O)CC2)c1C [Example 4079, (S)-1-(5-chloro-2-((5-cyanopyridin-3-yl)methoxy)-4-((3′-(((2-(1,1-dioxidothiomorpholino)ethyl)(methyl)amino)methyl)-2,2′-dimethyl-[1,1′-biphenyl]-3-yl)methoxy)benzyl)piperidine-2-carboxylic Acid] | 73 |
| Cc1c(COc2cc(OCc3cncc(C#N)c3)c(CN[C@@H](Cc3ccc(O)cc3)C(=O)O)cc2Cl)cccc1-c1cccc(OCCCN2CC[C@@H](O)C2)c1C [Example 4157, (5-chloro-2-((5-cyanopyridin-3-yl)methoxy)-4-((3′-(3-((R)-3-hydroxypyrrolidin-1-yl)propoxy)-2,2′-dimethyl-[1,1′-biphenyl]-3-yl)methoxy)benzyl)-L-tyrosine] | 3 |

same assay, conditions: PD-L1-His 10 nM, PD-1-Ig 20 nM; value given as range class; read-out: Range or IC50

| Structure (SMILES) | IC50 [nM] |
| --- | --- |
| Cc1c(COc2cc(OCc3cncc(C#N)c3)c(CNC(CO)(CO)CO)cc2Cl)cccc1-c1cccc(OCCCN2CCC(F)(F)C2)c1C [Example 4118, 5-((4-chloro-5-((3′-(3-(3,3-difluoropyrrolidin-1-yl)propoxy)-2,2′-dimethyl-[1,1′-biphenyl]-3-yl)methoxy)-2-(((1,3-dihydroxy-2-(hydroxymethyl)propan-2-yl)amino)methyl)phenoxy)methyl)nicotinonitrile] | 0.21 to 10 |
| Cc1c(COc2cc(OCc3cncc(C#N)c3)c(CNC(CO)CO)cc2Cl)cccc1-c1cccc(C(=O)N2CCOCC2)c1C [Example 4052, 5-((4-chloro-2-(((1,3-dihydroxypropan-2-yl)amino)methyl)-5-((2,2′-dimethyl-3′-(morpholine-4-carbonyl)-[1,1′-biphenyl]-3-yl)methoxy)phenoxy)methyl)nicotinonitrile] | 10 to 100 |
| CNC(=O)c1cccc(-c2cccc(COc3cc(OCc4cncc(C#N)c4)c(CN4C[C@H](O)C[C@H]4C(=O)O)cc3Cl)c2C)c1C [Example 4013, (2S,4R)-1-(5-chloro-2-((5-cyanopyridin-3-yl)methoxy)-4-((2,2′-dimethyl-3′-(methylcarbamoyl)-[1,1′-biphenyl]-3-yl)methoxy)benzyl)-4-hydroxypyrrolidine-2-carboxylic Acid] | 10 to 100 |
| Cc1c(COc2cc(OCc3cncc(C#N)c3)c(CN[C@@H](CCCNC(=N)N)C(=O)O)cc2Cl)cccc1-c1cccc(OCCCN2CCC(O)C2)c1 (stereo in doubt) [Example 3002, (S)-2-((5-chloro-2-((5-cyanopyridin-3-yl)methoxy)-4-((3′-(3-((R)-3-hydroxypyrrolidin-1-yl)propoxy)-2-methyl-[1,1′-biphenyl]-3-yl)methoxy)benzyl)amino)-5-guanidinopentanoic Acid] | 0.21 to 10 |
| Cc1c(COc2cc(OCc3ccc(F)c(F)c3)c(CN3CCCC[C@H]3C(=O)O)cc2Cl)cccc1-c1cccc(OCCCN2CC[C@@H](O)C2)c1C [Example 4512, (S)-1-(5-chloro-2-((3,4-difluorobenzyl)oxy)-4-((3′-(3-((R)-3-hydroxypyrrolidin-1-yl)propoxy)-2,2′-dimethyl-[1,1′-biphenyl]-3-yl)methoxy)benzyl)piperidine-2-carboxylic Acid] | 0.21 to 10 |
| Cc1c(OCCCN2CC[C@@H](O)C2)cccc1-c1cccc(COc2cc(OCc3cncc(C#N)c3)c(CN[C@](C)(CO)C(=O)O)cc2Cl)c1Cl [Example 3017, (R)-2-((5-chloro-4-((2-chloro-3′-(3-((R)-3-hydroxypyrrolidin-1-yl)propoxy)-2′-methyl-[1,1′-biphenyl]-3-yl)methoxy)-2-((5-cyanopyridin-3-yl)methoxy)benzyl)amino)-3-hydroxy-2-methylpropanoic Acid] | 0.21 to 10 |
| Cc1c(COc2cc(OCc3cncc(C#N)c3)c(CN3CCCC[C@H]3C(=O)O)cc2Cl)cccc1-c1cccc(OCCCN2[C@@H]3CC[C@H]2CC(O)C3)c1C (stereo partly drawn) [Example 3048, (2S)-1-(5-chloro-2-((5-cyanopyridin-3-yl)methoxy)-4-((3′-(3-((1R,5S)-3-hydroxy-8-azabicyclo[3.2.1]octan-8-yl)propoxy)-2,2′-dimethyl-[1,1′-biphenyl]-3-yl)methoxy)benzyl)piperidine-2-carboxylic Acid] | 0.21 to 10 |
| Cc1c(COc2cc(OCc3cncc(C#N)c3)c(CN3CC(=O)NC(=O)C3)cc2Cl)cccc1-c1cccc(OCCCN2CC[C@@H](O)C2)c1C [Example 2329, (R)-5-((4-chloro-2-((3,5-dioxopiperazin-1-yl)methyl)-5-((3′-(3-(3-hydroxypyrrolidin-1-yl)propoxy)-2,2′-dimethyl-[1,1′-biphenyl]-3-yl)methoxy)phenoxy)methyl)nicotinonitrile] | 0.21 to 10 |
| Cc1cccc(C)c1COc1cc(OCc2cccc(-c3cccc(OCCCN4CC[C@@H](O)C4)c3C)c2C)c(Cl)cc1CN1CCCC[C@H]1C(=O)O [Example 4516, (S)-1-(5-chloro-2-((2,6-dimethylbenzyl)oxy)-4-((3′-(3-((R)-3-hydroxypyrrolidin-1-yl)propoxy)-2,2′-dimethyl-[1,1′-biphenyl]-3-yl)methoxy)benzyl)piperidine-2-carboxylic Acid] | 2010 to 10000 |
| Cc1c(COc2cc(OCc3cncc(C#N)c3)c(CNC(CO)CO)cc2Cl)cccc1-c1cccc(OCCCN2CCC(O)(CO)CC2)c1Cl [Example 2063, 5-((4-chloro-5-((2′-chloro-3′-(3-(4-hydroxy-4-(hydroxymethyl)piperidin-1-yl)propoxy)-2-methyl-[1,1′-biphenyl]-3-yl)methoxy)-2-(((1,3-dihydroxypropan-2-yl)amino)methyl)phenoxy)methyl)nicotinonitrile] | 100 to 2000 |
| Cc1c(COc2cc(OCc3cncc(C#N)c3)c(CN3CCN(CCO)CC3)cc2Cl)cccc1-c1cccc(OCCCN2CCN(CCO)CC2)c1Cl [Example 2011, 5-((4-chloro-5-((2′-chloro-3′-(3-(4-(2-hydroxyethyl)piperazin-1-yl)propoxy)-2-methyl-[1,1′-biphenyl]-3-yl)methoxy)-2-((4-(2-hydroxyethyl)piperazin-1-yl)methyl)phenoxy)methyl)nicotinonitrile] | 0.21 to 10 |
| Cc1c(COc2cc(OCc3cncc(C#N)c3)c(CNC(C)(CO)CO)c(C)c2Cl)cccc1-c1cccc(OCCCN2CC[C@@H](O)C2)c1C [Example 4103, (R)-5-((4-chloro-2-(((1,3-dihydroxy-2-methylpropan-2-yl)amino)methyl)-5-((3′-(3-(3-hydroxypyrrolidin-1-yl)propoxy)-2,2′-dimethyl-[1,1′-biphenyl]-3-yl)methoxy)-3-methylphenoxy)methyl)nicotinonitrile] | 0.21 to 10 |
| COc1cc(OCc2cccc(-c3cccc(OCCCN4CC[C@@H](O)C4)c3C)c2C)c(Cl)cc1CN1CCCC[C@H]1C(=O)O [Example 3036, (2S)-1-(5-chloro-4-((3′-(3-((R)-3-hydroxypyrrolidin-1-yl)propoxy)-2,2′-dimethyl-[1,1′-biphenyl]-3-yl)methoxy)-2-methoxybenzyl)piperidine-2-carboxylic Acid] | 0.21 to 10 |
| Cc1c(COc2cc(OCc3cncc(C#N)c3)c(CN[C@@](C)(CO)C(=O)O)cc2Cl)cccc1-c1cccc(OCCCN2CC[C@H](CO)[C@H](O)C2)c1C [Example 2261, (2S)-2-(5-chloro-2-((5-cyanopyridin-3-yl)methoxy)-4-((3′-(3-((3 S,4R)-3-hydroxy-4-(hydroxymethyl)piperidin-1-yl)propoxy)-2,2′-dimethylbiphenyl-3-yl)methoxy)benzylamino)-3-hydroxy-2-methylpropanoic Acid] | 0.21 to 10 |
